Reference: US11730720B2, “ALK5 inhibitors” (THERAVANCE BIOPHARMA R&D IP, LLC, priority 2018, dated 2023)

Assays:
[1] = biological target: T1, recombinant human ALK5 (TGF-βR1) protein (Homo sapiens, UniProt P36897); experiment: Biochemical ALK5 (TGF-βR1) assay to measure pKi (LANCE Ultra ULight kinase assay); details: apparent pKi, converted from pIC50 using the Cheng-Prusoff equation
T1 construct: purchased Life Technologies PR9075A
T1 sequence (P36897 34-503): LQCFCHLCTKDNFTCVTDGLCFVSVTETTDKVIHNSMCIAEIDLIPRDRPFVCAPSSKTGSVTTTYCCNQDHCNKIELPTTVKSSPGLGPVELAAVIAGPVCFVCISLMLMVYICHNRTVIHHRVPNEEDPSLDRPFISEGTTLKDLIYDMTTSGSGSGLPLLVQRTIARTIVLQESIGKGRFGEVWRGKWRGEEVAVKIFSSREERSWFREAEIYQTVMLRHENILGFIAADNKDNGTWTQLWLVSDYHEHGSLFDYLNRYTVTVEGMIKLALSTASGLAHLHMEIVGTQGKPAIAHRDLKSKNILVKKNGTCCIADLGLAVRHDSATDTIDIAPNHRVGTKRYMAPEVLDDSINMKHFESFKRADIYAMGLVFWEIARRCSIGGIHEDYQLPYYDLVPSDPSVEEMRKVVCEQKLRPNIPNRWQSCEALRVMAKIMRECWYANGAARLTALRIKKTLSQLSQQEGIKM
In short: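 TR-FRET kinase format: compound dose range 10 μM–25 pM equilibrated 60 min with human ALK5 and ULight-labelled topoisomerase 2α peptide in HEPES/MgCl2 buffer pH 7.5 with DTT. Reaction started with ATP (125 μM stock, 5× final), 60 min at 37° C, stopped with EDTA/Eu-anti-phospho antibody; pKi derived from pIC50 via Cheng-Prusoff.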

[2] = test system: TGF-β-stimulated SMAD3 phosphorylation in BEAS-2B cells; experiment: Cellular ALK5 potency assay, inhibition of TGF-β stimulated pSMAD3 formation in BEAS-2B cells; format: cell-based; details: Homo sapiens, inhibition of TGF-β (10 ng/mL) stimulated pSMAD3 formation, 1 hour compound incubation, read-out: BEAS2B pIC50 (converted)
In short: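 Phospho-SMAD3 was quantified by AlphaLISA in lysates of human lung epithelial BEAS-2B cells. Compound was added 1 h (37 °C, HEPES/BSA-supplemented HBSS) before a 30 min challenge with 10 ng/mL TGF-β. Values are pIC50 relative to stimulated cells without compound.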

| Compound | Ki [1] [nM] | IC50 [2] [nM] |
| --- | --- | --- |
| COC(=O)c1cnc2ccc(-c3[nH]nnc3-c3ccccc3F)nc2c1 [Compound 12-1, methyl 6-(4-(2-fluorophenyl)-1H-1,2,3-triazol-5-yl)-1,5-naphthyridine-3-carboxylate] | 3.98 to 31.6 | 200 to 1260 |
| Fc1ccccc1-c1[nH]nnc1-c1ccc2ncc(-c3c[nH]nc3C(F)(F)F)cc2n1 [Compound 12-2, 2-[5-(2-fluorophenyl)-1H-triazol-4-yl]-7-[3-(trifluoromethyl)-1H-pyrazol-4-yl]-1,5-naphthyridine] | 3.98 to 31.6 | 25.1 to 158 |
| CNCCn1cc(-c2cnc3ccc(-c4c[nH]nc4-c4cc(O)ccc4C)nc3c2)cn1 [Compound 13-1, 4-methyl-3-(4-(7-(1-(2-(methylamino)ethyl)-1H-pyrazol-4-yl)-1,5-naphthyridin-2-yl)-1H-pyrazol-3-yl)phenol] | 0.398 to 3.16 | 200 to 1260 |
| CNC1CCN(c2cnc3ccc(-c4c[nH]nc4-c4cccc(COC)c4)nc3c2)CC1 [Compound 14-1, 1-(6-(3-(3-(methoxymethyl)phenyl)-1H-pyrazol-4-yl)-1,5-naphthyridin-3-yl)-N-methylpiperidin-4-amine] | 3.98 to 31.6 | 25.1 to 158 |
| COCc1cccc(-c2n[nH]cc2-c2ccc3ncc(N4CCC(N5CCN(C)CC5)CC4)cc3n2)c1 [Compound 14-2, 2-[3-(3-(methoxymethyl)phenyl]-1H-pyrazol-4-yl]-7-[4-(4-methylpiperazin-1-yl)-1-piperidyl]-1,5-naphthyridine] | 0.398 to 3.16 | 25.1 to 158 |
| COCc1cccc(-c2n[nH]cc2-c2ccc3ncc(N4CCC(N5CCCC5)CC4)cc3n2)c1 [Compound 14-3, 2-[3-[3-(methoxymethyl)phenyl]-1H-pyrazol-4-yl]-7-(4-pyrrolidin-1-yl-1-piperidyl)-1,5-naphthyridine] | 3.98 to 31.6 | 25.1 to 158 |
| COCc1cccc(-c2n[nH]cc2-c2ccc3ncc(N4CCN(C(C)C)CC4)cc3n2)c1 [Compound 14-5, 7-(4-isopropylpiperazin-1-yl)-2-[3-[3-(methoxymethyl)phenyl]-1H-pyrazol-4-yl]-1,5-naphthyridine] | 3.98 to 31.6 | 25.1 to 158 |
| COCc1cccc(-c2n[nH]cc2-c2ccc3ncc(N4CCC(N)C4)cc3n2)c1 (centres unmarked) [Compound 14-6, 1-[6-[3-[3-(methoxymethyl)phenyl]-1H-pyrazol-4-yl]-1,5-naphthyridin-3-yl]pyrrolidin-3-amine] | 0.398 to 3.16 | 25.1 to 158 |
| COCc1cccc(-c2n[nH]cc2-c2ccc3ncc(N4CCC(N(C)C)CC4)cc3n2)c1 [Compound 14-7, 1-[6-[3-[3-(methoxymethyl)phenyl]-1H-pyrazol-4-yl]-1,5-naphthyridin-3-yl]-N,N-dimethyl-piperidin-4-amine] | 3.98 to 31.6 | 25.1 to 158 |
| CNCCn1cc(-c2cnc3ccc(-c4c[nH]nc4-c4cccc(COC)c4)nc3c2)cn1 [Compound 14-8, 2-(4-(6-(3-(3-(methoxymethyl)phenyl)-1H-pyrazol-4-yl)-1,5-naphthyridin-3-yl)-1H-pyrazol-1-yl)-N-methylethan-1-amine] | 0.0398 to 0.316 | 25.1 to 158 |
| COCc1cccc(-c2n[nH]cc2-c2ccc3ncc(-c4cn[nH]c4)cc3n2)c1 [Compound 14-9, 2-[3-[3-(methoxymethyl)phenyl]-1H-pyrazol-4-yl]-7-(1H-pyrazol-4-yl)-1,5-naphthyridine] | 0.398 to 3.16 | ≤ 20 |
| CNCCn1ccc(-c2cnc3ccc(-c4c[nH]nc4-c4cccc(COC)c4)nc3c2)n1 [Compound 14-10, 2-[3-[6-[3-[3-(methoxymethyl)phenyl]-1H-pyrazol-4-yl]-1,5-naphthyridin-3-yl]pyrazol-1-yl]-N-methyl-ethanamine] | 0.398 to 3.16 | 25.1 to 158 |
| COCc1cccc(-c2n[nH]cc2-c2ccc3ncc(-c4cnn(CC5CNC5)c4)cc3n2)c1 [Compound 14-11, 7-[1-(azetidin-3-ylmethyl)pyrazol-4-yl]-2-[3-[3-(methoxymethyl)phenyl]-1H-pyrazol-4-yl]-1,5-naphthyridine] | 0.0398 to 0.316 | 25.1 to 158 |

More lines, main results first:

| Ki [1] [nM] | Compound | IC50 [2] [nM] |
| --- | --- | --- |
| 0.398 to 3.16 | COCc1cccc(-c2n[nH]cc2-c2ccc3ncc(C4=CCC(N)CC4)cc3n2)c1 (centres unmarked) [Compound 14-12, 4-[6-[3-[3-(methoxymethyl)phenyl]-1H-pyrazol-4-yl]-1,5-naphthyridin-3-yl]cyclohex-3-en-1-amine] | 25.1 to 158 |
| 0.0398 to 0.316 | COCc1cccc(-c2n[nH]cc2-c2ccc3ncc(-c4cnn(CCN)c4)cc3n2)c1 [Compound 14-13, 2-[4-[6-[3-[3-(methoxymethyl)phenyl]-1H-pyrazol-4-yl]-1,5-naphthyridin-3-yl]pyrazol-1-yl]ethanamine] | 25.1 to 158 |
| 0.0398 to 0.316 | COCc1cccc(-c2n[nH]cc2-c2ccc3ncc(C4=CCC(N(C)C)CC4)cc3n2)c1 (centres unmarked) [Compound 14-14, 4-(6-(3-(3-(methoxymethyl)phenyl)-1H-pyrazol-4-yl)-1,5-naphthyridin-3-yl)-N,N-dimethylcyclohex-3-en-1-amine] | 25.1 to 158 |
| 0.398 to 3.16 | CNCCn1cc(-c2cnc3ccc(-c4c[nH]nc4-c4cccc(COC)c4)nc3c2)nn1 [Compound 14-15, 2-(4-(6-(3-(3-(methoxymethyl)phenyl)-1H-pyrazol-4-yl)-1,5-naphthyridin-3-yl)-1H-1,2,3-triazol-1-yl)-N-methylethan-1-amine] | 25.1 to 158 |
| 3.98 to 31.6 | COCc1cccc(-c2n[nH]cc2-c2ccc3ncc(N4CCNCC4)cc3n2)c1 [Compound 14-16, 2-[3-[3-(methoxymethyl)phenyl]-1H-pyrazol-4-yl]-7-piperazin-1-yl-1,5-naphthyridine] | 200 to 1260 |
| 3.98 to 31.6 | COCc1cccc(-c2n[nH]cc2-c2ccc3ncc(NCCN4CCN(C(C)C)CC4)cc3n2)c1 [Compound 14-17, N-[2-(4-isopropylpiperazin-1-yl)ethyl]-6-[3-[3-(methoxymethyl)phenyl]-1H-pyrazol-4-yl]-1,5-naphthyridin-3-amine] | 200 to 1260 |
| 0.0398 to 0.316 | COCc1cccc(-c2n[nH]cc2-c2ccc3ncc(-c4cnn([C@H]5CCCC[C@H]5N)c4)cc3n2)c1 [Compound 14-18, (1R,2S)-2-[4-[6-[3-[3-(methoxymethyl)phenyl]-1H-pyrazol-4-yl]-1,5-naphthyridin-3-yl]pyrazol-1-yl]cyclohexanamine] | 25.1 to 158 |
| 3.98 to 31.6 | COCc1cccc(-c2[nH]cnc2-c2ccc3ncc(NCCN4CCNCC4)cc3n2)c1 [Compound 15-1, 6-(5-(3-(methoxymethyl)phenyl)-1H-imidazol-4-yl)-N-(2-(piperazin-1-yl)ethyl)-1,5-naphthyridin-3-amine] | 200 to 1260 |
| 3.98 to 31.6 | COCc1cccc(-c2[nH]cnc2-c2ccc3ncc(NCCN4CCN(C(C)C)CC4)cc3n2)c1 [Compound 15-2, N-[2-(4-isopropoylpiperazin-1-yl)ethyl]-6-[5-[3-(methoxymethyl)phenyl]-1H-imidazol-4-yl]-1,5-naphthyridin-3-amine] | 200 to 1260 |
| 0.0398 to 0.316 | CNCCn1cc(-c2cnc3ccc(-c4nc[nH]c4-c4cccc(COC)c4)nc3c2)cn1 [Compound 15-3, 2-(4-(6-(5-(3-(methoxymethyl)phenyl)-1H-imidazol-4-yl)-1,5-naphthyridin-3-yl)-1H-pyrazol-1-yl)-N-methylethan-1-amine] | 25.1 to 158 |
| ≤ 0.0316 | CNCCn1cc(-c2cnc3ccc(-c4c[nH]nc4-c4cc(Cl)ccc4F)cc3c2)cn1 [Compound 16-1, 2-(4-(6-(3-(5-chloro-2-fluorophenyl)-1H-pyrazol-4-yl)quinolin-3-yl)-1H-pyrazol-1-yl)-N-methylethan-1-amine] | ≤ 20 |
| 0.0398 to 0.316 | Fc1ccc(Cl)cc1-c1n[nH]cc1-c1ccc2ncc(-c3cn[nH]c3)cc2c1 [Compound 16-2, 6-[3-(5-chloro-2-fluoro-phenyl)-1H-pyrazol-4-yl]-3-(1H-pyrazol-4-yl)quinoline] | ≤ 20 |
| 0.398 to 3.16 | CN1CCN(C2CCN(c3cnc4ccc(-c5c[nH]nc5-c5cc(Cl)ccc5F)cc4c3)CC2)CC1 [Compound 16-4, 6-[3-(5-chloro-2-fluoro-phenyl)-1H-pyrazol-4-yl]-3-[4-(4-methylpiperazin-1-yl)-1-piperidyl]quinoline] | 25.1 to 158 |
| 0.398 to 3.16 | CC(C)N1CCN(CCNc2cnc3ccc(-c4c[nH]nc4-c4cc(Cl)ccc4F)cc3c2)CC1 [Compound 16-5, 6-(3-(5-chloro-2-fluorophenyl)-1H-pyrazol-4-yl)-N-(2-(4-isopropylpiperazin-1-yl)ethyl)quinolin-3-amine] | 25.1 to 158 |
| 0.0398 to 0.316 | Fc1ccc(Cl)cc1-c1[nH]cnc1-c1ccc2ncc(-c3cn[nH]c3)cc2c1 [Compound 17-1, 6-(5-(5-chloro-2-fluorophenyl)-1H-imidazol-4-yl)-3-(1H-pyrazol-4-yl)quinoline] | ≤ 20 |
